In patent US6737383B1, “Herbicidal oxadiazolidines” (priority 1999, dated 2004):

Assays:
blackgrass = test: Test B pre/postemergence blackgrass; assay type: in vivo, Alopecurus myosuroides
In short: (§1)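 Test chemicals in a non-phytotoxic solvent mixture with surfactant were sprayed preemergence onto planted seeds and postemergence onto plants 2 to 18 cm tall (1- to 4-leaf stage). After twelve to sixteen days in a greenhouse, injury was visually rated against untreated controls from 0 (no effect) to 10 (complete control).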

giant foxtail = test: Test B pre/postemergence giant foxtail; assay type: in vivo, Setaria faberii
In short: as §1

wheat = test: Test B pre/postemergence wheat; assay type: in vivo, Triticum aestivum
In short: as §1

purple nutsedge = test: Test B pre/postemergence purple nutsedge; assay type: in vivo, Cyperus rotundus
In short: as §1

[1] = Preemergence, Rate 62 g/ha, scale of 0 to 10 where 0 is no effect and 10 is complete control
[2] = Preemergence, Rate 250 g/ha, scale of 0 to 10 where 0 is no effect and 10 is complete control
[3] = Preemergence, Rate 500 g/ha, scale of 0 to 10 where 0 is no effect and 10 is complete control
[4] = Rate 62 g/ha, Postemergence, scale 0 to 10 (0 no effect, 10 complete control)
[5] = Rate 125 g/ha, Postemergence, scale of 0 to 10 where 0 is no effect and 10 is complete control
[6] = Rate 250 g/ha, Postemergence, scale of 0 to 10 where 0 is no effect and 10 is complete control
[7] = Rate 500 g/ha, Postemergence, scale 0 to 10, 0 no effect, 10 complete control
[8] = Rate 62 g/ha, Postemergence, scale of 0 to 10 where 0 is no effect and 10 is complete control
[9] = Rate 125 g/ha, Postemergence, scale 0 to 10
[10] = Rate 125 g/ha, Preemergence, scale of 0 to 10 where 0 is no effect and 10 is complete control
[11] = Postemergence, Rate 250 g/ha, scale 0 to 10, 0 no effect, 10 complete control
[12] = Postemergence, Rate 1000 g/ha, scale 0 to 10 (0 no effect, 10 complete control)
[13] = Preemergence, Rate 125 g/ha, scale 0 to 10 (0 no effect, 10 complete control)
[14] = Preemergence, Rate 500 g/ha, scale 0 (no effect) to 10 (complete control)
[15] = Rate 125 g/ha, Postemergence, scale 0 to 10, 0 no effect, 10 complete control
[16] = Rate 500 g/ha, Postemergence, 0 to 10 scale (0 no effect, 10 complete control)
[17] = Rate 1000 g/ha, Preemergence, scale 0 to 10 (0 no effect, 10 complete control)

In the case of `CC(C)N(C(=O)n1oc(=O)n(Cc2nnsc2Cl)c1=O)c1ccccc1` [Compound 321], the “Blackgrass plant response rating” value (blackgrass; [1]) is reported as 3, the “Blackgrass plant response rating (0 to 10 scale)” value (blackgrass; Preemergence, Rate 125 g/ha) is reported as 6 and the “Blackgrass plant response rating” value (blackgrass; [2]) is reported as 6. For the same compound, the “Blackgrass plant response rating” value (blackgrass; [3]) was 7, the “Blackgrass plant response rating” value (blackgrass; [4]) was 0 and the “Blackgrass plant response rating” value (blackgrass; [5]) was 0. The “Plant response rating, Blackgrass” value (blackgrass; [6]) was 0, the “Blackgrass plant response rating” value (blackgrass; [7]) was 4 and the “Giant foxtail plant response rating” value (giant foxtail; [1]) was 4. The “Giant foxtail plant response rating (0 to 10 scale)” value (giant foxtail; Preemergence, Rate 125 g/ha) was 8, the “Giant foxtail plant response rating” value (giant foxtail; [2]) was 9 and the “Giant foxtail plant response rating” value (giant foxtail; [3]) was 10. The “Giant foxtail plant response rating” value (giant foxtail; [4]) was 0, the “Giant foxtail plant response rating” value (giant foxtail; [5]) was 0 and the “Plant response rating, Giant foxtail” value (giant foxtail; [6]) was 1. The “Wheat plant response rating” value (wheat; [1]) was 0, the “Wheat plant response rating (0 to 10 scale)” value (wheat; Preemergence, Rate 125 g/ha) was 0 and the “Wheat plant response rating” value (wheat; [2]) was 0. For the same compound, the “Wheat plant response rating” value (wheat; [3]) was 0, the “Wheat plant response rating” value (wheat; [4]) was 0 and the “Wheat plant response rating” value (wheat; [5]) was 0. For the same compound, the “Plant response rating, Wheat” value (wheat; [6]) was 0, the “Nutsedge plant response rating” value (purple nutsedge; [1]) was 0 and the “Nutsedge plant response rating (0 to 10 scale)” value (purple nutsedge; Preemergence, Rate 125 g/ha) was 0. The “Nutsedge plant response rating” value (purple nutsedge; [3]) was 0, the “Nutsedge plant response rating” value (purple nutsedge; [4]) was 0 and the “Nutsedge plant response rating” value (purple nutsedge; [5]) was 0. For the same compound, the “Plant response rating, Nutsedge” value (purple nutsedge; [6]) was 0.

`CCc1ccc(N(C(=O)n2oc(=O)n(-c3ccccc3C)c2=O)C(C)C)cc1` [Compound 230] was tested, and the “Blackgrass plant response rating” value (blackgrass; [1]) was 0, the “Blackgrass plant response rating” value (blackgrass; [2]) was 0 and the “Plant response rating, Blackgrass” value (blackgrass; [3]) was 2. For the same compound, the “Blackgrass plant response rating” value (blackgrass; [8]) was 0, the “Blackgrass plant response rating” value (blackgrass; [9]) was 0 and the “Blackgrass plant response rating” value (blackgrass; [10]) was 0. For the same compound, the “Plant response rating (0 to 10; 0 is no effect, 10 is complete control), Blackgrass” value (blackgrass; Rate 250 g/ha, Postemergence) was 0, the “Blackgrass plant response rating” value (blackgrass; [7]) was 0 and the “Giant foxtail plant response rating” value (giant foxtail; [1]) was 2. For the same compound, the “Giant foxtail plant response rating” value (giant foxtail; [2]) was 8, the “Plant response rating, Giant foxtail” value (giant foxtail; [3]) was 9 and the “Giant foxtail plant response rating” value (giant foxtail; [8]) was 0. The “Giant foxtail plant response rating” value (giant foxtail; [9]) was 0, the “Giant foxtail plant response rating” value (giant foxtail; [10]) was 2 and the “Plant response rating (0 to 10; 0 is no effect, 10 is complete control), Giant foxtail” value (giant foxtail; Rate 250 g/ha, Postemergence) was 0. The “Giant foxtail plant response rating” value (giant foxtail; [7]) was 1, the “Wheat plant response rating” value (wheat; [1]) was 0 and the “Wheat plant response rating” value (wheat; [2]) was 0. The “Plant response rating, Wheat” value (wheat; [3]) was 0, the “Wheat plant response rating” value (wheat; [8]) was 0 and the “Wheat plant response rating” value (wheat; [9]) was 0. For the same compound, the “Wheat plant response rating” value (wheat; [10]) was 0, the “Plant response rating (0 to 10; 0 is no effect, 10 is complete control), Wheat” value (wheat; Rate 250 g/ha, Postemergence) was 0 and the “Wheat plant response rating” value (wheat; [7]) was 0. The “Nutsedge plant response rating” value (purple nutsedge; [1]) was 0, the “Nutsedge plant response rating” value (purple nutsedge; [2]) was 0 and the “Plant response rating, Nutsedge” value (purple nutsedge; [3]) was 0. The “Nutsedge plant response rating” value (purple nutsedge; [8]) was 0, the “Nutsedge plant response rating” value (purple nutsedge; [9]) was 0 and the “Nutsedge plant response rating” value (purple nutsedge; [10]) was 0. The “Plant response rating (0 to 10; 0 is no effect, 10 is complete control), Nutsedge” value (purple nutsedge; Rate 250 g/ha, Postemergence) was 0 and the “Nutsedge plant response rating” value (purple nutsedge; [7]) was 0.

`CCN(CC)C(=O)n1oc(=O)n(-c2c(C)cccc2C)c1=O` [Compound 2] was tested, and the “Blackgrass plant response rating” value (blackgrass; [11]) was 4, the “Blackgrass plant response rating” value (blackgrass; [12]) was 9 and the “Plant response rating, Blackgrass” value (blackgrass; [13]) was 0. For the same compound, the “Plant response rating, Blackgrass” value (blackgrass; [2]) was 0, the “Blackgrass plant response rating” value (blackgrass; [14]) was 0 and the “Blackgrass plant response rating” value (blackgrass; [15]) was 0. For the same compound, the “Blackgrass plant response rating” value (blackgrass; [16]) was 8, the “Plant response rating, Blackgrass” value (blackgrass; [17]) was 7 and the “Giant foxtail plant response rating” value (giant foxtail; [11]) was 7. For the same compound, the “Giant foxtail plant response rating” value (giant foxtail; [12]) was 8, the “Plant response rating, Giant foxtail” value (giant foxtail; [13]) was 6 and the “Plant response rating, Giant foxtail” value (giant foxtail; [2]) was 7. The “Giant foxtail plant response rating” value (giant foxtail; [14]) was 7, the “Giant foxtail plant response rating” value (giant foxtail; [15]) was 0 and the “Giant foxtail plant response rating” value (giant foxtail; [16]) was 7. The “Plant response rating, Giant foxtail” value (giant foxtail; [17]) was 10, the “Wheat plant response rating” value (wheat; [11]) was 0 and the “Wheat plant response rating” value (wheat; [12]) was 0. The “Plant response rating, Wheat” value (wheat; [13]) was 0, the “Plant response rating, Wheat” value (wheat; [2]) was 0 and the “Wheat plant response rating” value (wheat; [14]) was 0. The “Wheat plant response rating” value (wheat; [15]) was 0, the “Plant response rating, Wheat” value (wheat; [17]) was 0 and the “Nutsedge plant response rating” value (purple nutsedge; [11]) was 0. For the same compound, the “Nutsedge plant response rating” value (purple nutsedge; [12]) was 0, the “Nutsedge plant response rating” value (purple nutsedge; [15]) was 0 and the “Nutsedge plant response rating” value (purple nutsedge; [16]) was 0.
